Measured values: patent publication US4639444A, “3,5-dialkyl-4,6-diaryl-tetrahydro-2H-13,5-thiadiazine-2-thione derivative, process for its production and antihyperlipidemic agent containing it” (Nissan Chemical Industries Ltd., priority 1984, dated 1987)

Experiments:
[1] = literature, and its derivatives; cited from earlier work
[2] = tested on: emulsion-induced hyperlipidemic rats; assay: antihyperlipidemic activity in emulsion-induced hyperlipidemic rats; assay type: in vivo; details: Rattus norvegicus, po, 72 h, 300 mg/kg daily via stomach tube, 3 days, male S.D. rats, lipids emulsion, versus control group; for change in vivo at 300 mg/kg: "-" = reduction rate, read-out: Increase rate of serum HDL-Chol.; for inhibition in vivo at 300 mg/kg: read-out: Reduction rate of serum Chol.
Procedure: The antihyperlipidemic activity in emulsion-induced hyperlipidemic rats: Male S. D. rats weighing 80-90 g (4 weeks old) were used. They were devided into groups of 5 to 6 rats each. The test compounds suspended in 0.5% CMC-Na(carboxymethyl cellulose sodium salt) were given to the rats in a daily dose of 4.0 ml/kg (i.e. 300 mg/kg of the test compounds) via stomach tube every 10:00 a.m. After 30 min., lipids emulsion having the following composition was orally given to the rats in an amount of 2.5 ml per rat. During the experimental period of 3 days, the rats were fed on a standard commercial diet and water ad libitum. […] The total cholesterol and HDL cholesterol were measured. The weight of the liver was measured. To the control group, only the aqueous CMC-Na solution and the lipids emulsion were given. The fractionation of lipoproteins was conducted by a dextran sulfate-MgCl2 precipitation method. Cholesterol in serum was measured by means of a cholesterol measuring kit (Cholesterol C-Test Wako, manufactured by Wako Junyaku Co., Ltd.), and cholesterol in HDL was measured by means of NC Hi-Set, manufactured by Nippon Chemiphar Co., Ltd. In the following description, cholesterol is referred to as "Chol". Further, the reduction rate of Chol was calculated by the following equation. [formula] where A is the amount of serum Chol (mg/dl) of the control group, and B is the amount of serum Chol (mg/dl) of the group to which the therapeutic agent was administered. Likewise, the increase rate of serum HDL-Chol was calculated by the following equation. [formula] where C is the amount of serum HDL-Chol (mg/dl) of the control group, and D is the amount of serum HDL-Chol (mg/dl) of the group to which the therapeutic agent was administered.

[3] = acute toxicity (mortality after seven days); details: mouse, in vivo, po, 4000 mg/kg p.o., male ddY mice
Procedure: The test compounds suspended in 0.5% CMC-Na were administered p.o. to male ddY mice. The acute toxicity was determined based on the mortality after seven days. In respect of the Compound Nos. 1, 2, 3, 4, 6, 7, 10, 12 and 13 of the present invention, the mortality was 0% even at a dose of as high as 4000 mg/kg by oral administration.

[4] = animal experiments, Svoboda and Azarnoff, Cancer Res. 39, 3419 (1979); cited from earlier work

Compound | side effects reported [1] | change in vivo at 300 mg/kg [2] [%] | inhibition in vivo at 300 mg/kg [2] [%] | mortality at 168 h [3] [%] | hepatic carcinoma [4]
O=C(O)c1cccnc1 [nicotinic acid] | flashing or gastroenteric troubles | – | – | – | –
CCN1C(=S)SC(c2ccccc2)N(CC)C1c1ccccc1 (stereo not shown) [compound 15] | – | 31 | 45 | – | –
COc1cccc(C2SC(=S)N(C)C(c3cccc(OC)c3OC)N2C)c1OC (stereo not shown) [compound 16] | – | 44 | 34 | – | –
CCOc1ccccc1C1SC(=S)N(C)C(c2ccccc2OCC)N1C (stereo not shown) [compound 7] | – | 14 | 37 | 0 | –
CSc1ccc(C2SC(=S)N(C)C(c3ccc(SC)cc3)N2C)cc1 (stereo not shown) [compound 11] | – | 53 | 13 | – | –
Cc1cccc(C2SC(=S)N(C)C(c3cccc(C)c3)N2C)c1 (stereo not shown) [Compound No. 5] | – | 52 | 44 | – | –
COc1ccccc1C1SC(=S)N(C)C(c2ccccc2OC)N1C (stereo not shown) [Compound No. 3] | – | 33 | 32 | 0 | –
CN1C(=S)SC(c2ccc(Oc3ccccc3)cc2)N(C)C1c1ccc(Oc2ccccc2)cc1 (stereo not shown) [compound 10] | – | -23 | 53 | 0 | –
Cc1ccc(C2SC(=S)N(C)C(c3ccc(C)cc3)N2C)cc1 (stereo not shown) [Compound No. 4] | – | 99 | 49 | 0 | –
CCOC(=O)C(C)(C)Oc1ccc(Cl)cc1 [Clofibrate, reference compound] | myalgia or hepatic insufficiency,and they are likely to lead to gallstone formation | -8 | 45 | – | brings about hepatic carcinoma on animal experiments
CN1C(=S)SC(c2ccc(F)cc2)N(C)C1c1ccc(F)cc1 (stereo not shown) [compound 8] | – | 37 | 26 | – | –
COc1cccc(C2SC(=S)N(C)C(c3cccc(OC)c3)N2C)c1 (stereo not shown) [Compound No. 2] | – | 25 | 41 | 0 | –
Cc1ccccc1C1SC(=S)N(C)C(c2ccccc2C)N1C (stereo not shown) [compound 6] | – | 61 | 40 | 0 | –
CN1C(=S)SC(c2ccc3c(c2)OCO3)N(C)C1c1ccc2c(c1)OCO2 (stereo not shown) [compound 13] | – | 54 | 52 | 0 | –
COc1cc(C2SC(=S)N(C)C(c3cc(OC)c(OC)c(OC)c3)N2C)cc(OC)c1OC (stereo not shown) [compound 14] | – | 6 | 19 | – | –
CC(C)c1ccc(C2SC(=S)N(C)C(c3ccc(C(C)C)cc3)N2C)cc1 (stereo not shown) [compound 9] | – | 56 | 30 | – | –
COc1ccc(C2SC(=S)N(C)C(c3ccc(OC)cc3OC)N2C)c(OC)c1 (stereo not shown) [compound 12] | – | 46 | 31 | 0 | –
COc1ccc(C2SC(=S)N(C)C(c3ccc(OC)cc3)N2C)cc1 (stereo not shown) [Compound No. 1, 3,5-Dimethyl-4,6-di(p-methoxyphenyl)-tetrahydro-2H-1,3,5-thiadiazine-2-thione] | – | 53 | 42 | 0 | –
